{"source": "patent US11401253B2", "about": "“16-methyl-oxacyclohexadecan-2-one and 16-methyl-azacyclohexadecan-2-one derivatives as antimicrobial agents” (THE UNIVERSITY OF MONTANA, priority 2017, dated 2022)", "key": {"GFP synthesis": {"system": "GFP synthesis", "test": "Cell-free translation assay with GFP reporter", "format": "biochemical", "details": "50 μM and 250 μM, 37° C., readings for 2 hr", "method": "Further assessment of the effect of BPL76 on protein translation was done using a cell-free translation assay. The plasmid pY71-sfGFP^55 (5 ng) was translated in the PUREexpress in vitro protein synthesis system (New England Biolabs). The final concentrations of erythromycin, josamycin and tylosin in the translation reactions were 50 μM. The reactions were incubated at 37° C. and fluorescence readings (excitation: 488 nm, emission, 520 nm) were taken every 20 min for 2 hr."}, "Gram-positive bacteria": {"system": "Gram-positive bacteria", "test": "Antibiotic panel, Gram-positive bacteria", "format": "cell-based", "details": "1 μM-1 mM/well", "text": "(§1) None of this collection of compounds were active against Gram-negative bacteria"}, "HepG2": {"system": "HepG2", "test": "Cytotoxicity (MTS), HepG2 cells", "format": "cell-based", "details": "Homo sapiens, 72 hours exposure"}, "S. aureus CAIRD148": {"system": "S. aureus CAIRD148", "test": "Antibiotic testing, methicillin-resistant S. aureus CAIRD148", "format": "cell-based", "details": "Staphylococcus aureus, CAIRD148; methicillin-resistant strain", "text": "(§2) Both the methyl ester and the diacetate derivatives of BPL 76 slightly less but still very strong activity against the same four MRSA strains (Table 11). The activities of compounds BPL 76 and BPL 81 were compared to several known antibiotics against three methicillin-resistant strains of S. aureus [FIG. 6, comparative data provided by Hartford Hospital, Center for Anti-Infective Research and Development (CAIRD)]."}, "[1]": {"system": "non-replicating persistence Mycobacterium tuberculosis (NRP-TB)", "test": "Low oxygen recovery assay (LORA), non-replicating persistence Mtb", "format": "cell-based", "details": "non-replicating persistence, hypoxic conditions"}, "Enterococcus faecalis": {"system": "Enterococcus faecalis", "test": "Antibiotic testing (MIC), Enterococcus faecalis", "format": "cell-based", "details": "growth inhibition ≥90%, read-out: minimum inhibitory concentration, Enterococcus faecalis"}, "[2]": {"system": "Vero, HepG2 and J774 cells", "test": "Cytotoxicity, mammalian cell lines (summary statement)", "format": "cell-based", "method": "Cytotoxicity for Vero, HepG2 and J774 cells were determined following 72 hours exposure to BPL76 and analogs. Cell viability was assessed on the basis of cellular conversion of MTS dye into a soluble formazan product using the Promega CellTiter 96 Aqueous Non-Radioactive Cell Proliferation Assay. After incubation at 37° C. for 72 h, medium was removed and monolayers were washed twice with 100 μl of warm Hanks' balanced salt solution (HBSS). One hundred microliters of warm medium and 20 μl of freshly made MTS-PMS [3-(4,5-dimethylthiazol-2-yl)-5-(3-carboxymethoxyphenyl)-2-(4-sulfophenyl)-2H-tetrazolium and […]](100:20) (Promega) were added to each well, plates were incubated for 3 h, and absorbance was determined at 490 nm. Viability was assessed on the basis of cellular conversion of MTS dye into a soluble formazan product using the Promega CellTiter 96 Aqueous Non-Radioactive Cell Proliferation Assay as described in Falzari K, Zhu Z, Pan D, Liu H, Hongmanee P, et al. (2005). In vitro and in vivo activities of macrolide derivatives against Mycobacterium tuberculosis were determined as described in Ekins, S, Reynolds, R C, Franzblau, S G, et al. Enhancing Hit Identification in Mycobacterium tuberculosis Drug Discovery Using Validated Dual-Event Bayesian Models PLOS ONE (2013) 8:5, e63240. […]"}, "[3]": {"system": "Mycobacterium tuberculosis"}, "K. pneumoniae (10031)": {"system": "K. pneumoniae (10031)", "test": "Antibiotic testing (MIC), gram negative K. pneumoniae", "format": "cell-based", "method": "as §1\n(§3) Additionally, BPL 76 and derivatives were tested against a panel of gram negative bacteria including K. pneumonia, P. aeruginosa and E. coli (Table 12)."}, "E. coli (25922)": {"system": "E. coli (25922)", "test": "Antibiotic testing (MIC), gram negative E. coli", "format": "cell-based", "method": "as §1, §3"}, "[4]": {"test": "Bactericidal activity (therapeutic index statement)", "format": "cell-based"}, "[5]": {"system": "Staphylococcus aureus (13709)", "test": "Antibiotic testing (MIC), S. aureus 13709", "format": "cell-based", "details": "growth inhibition ≥90% relative to drug-free controls, read-out: minimum inhibitory concentration, Staphylococcus aureus (13709)"}, "Vero cell": {"system": "Vero cell", "test": "Cytotoxicity (MTS), Vero cells", "format": "cell-based, monkey", "details": "Primates, 72 hours exposure"}, "Bacillus subtilis": {"system": "Bacillus subtilis", "test": "Antibiotic testing (MIC), Bacillus subtilis", "format": "cell-based", "details": "growth inhibition ≥90%, read-out: minimum inhibitory concentration, Bacillus subtilis"}, "P. aeruginosa": {"system": "P. aeruginosa", "test": "Antibiotic testing (MIC), gram negative P. aeruginosa", "format": "cell-based", "details": "Pseudomonas aeruginosa; read-out: MIC, P. aeruginosa", "method": "as §1, §3"}, "[6]": {"system": "Mycobacterium tuberculosis", "test": "microbe, parasite or virus in culture", "details": "read-out: MIC, MABA"}, "Candida glabrata": {"system": "Candida glabrata", "test": "Antibiotic testing (MIC), Candida glabrata", "format": "cell-based", "details": "Nakaseomyces glabratus; growth inhibition ≥90%; read-out: minimum inhibitory concentration, Candida glabrata"}, "C. albicans": {"system": "C. albicans", "test": "Antibiotic testing (MIC), C. albicans", "format": "cell-based", "details": "Candida albicans; growth inhibition ≥90%; read-out: minimum inhibitory concentration, C. albicans"}, "[7]": {"system": "primary human peripheral blood mononuclear cells (PBMCs)", "test": "Cell death in primary PBMCs", "format": "cell-based", "details": "highest concentration tested, 500 μg/ml", "method": "Additionally the BPL76 compound was tested against primary human peripheral blood mononuclear cells (PBMCs) and induced very little cell death, with only up to 60% death induced at the highest concentration tested, 500 μg/ml (not shown)."}, "Streptococcus pyogenes": {"system": "Streptococcus pyogenes", "test": "Antibiotic testing (MIC), Streptococcus pyogenes", "format": "cell-based", "details": "growth inhibition ≥90%, read-out: minimum inhibitory concentration, Streptococcus pyogenes"}, "S. aureus CAIRD116": {"system": "S. aureus CAIRD116", "test": "Antibiotic testing, methicillin-resistant S. aureus CAIRD116", "format": "cell-based", "details": "Staphylococcus aureus, CAIRD116; methicillin-resistant strain", "text": "as §2"}, "J774": {"system": "J774", "test": "Cytotoxicity (MTS), J774 cells", "format": "cell-based, murine", "details": "Mus musculus, 72 hours exposure"}, "S. aureus CAIRD142": {"system": "S. aureus CAIRD142", "test": "Antibiotic testing, methicillin-resistant S. aureus CAIRD142", "format": "cell-based", "details": "Staphylococcus aureus, CAIRD142; methicillin-resistant strain", "text": "as §2"}, "B. anthracis": {"system": "B. anthracis", "test": "microbe, parasite or virus in culture", "format": "cell-based", "details": "Bacillus anthracis, read-out: minimum inhibitory concentration, B. anthracis"}}, "note": "Several values for one entry are separate records, joined by “and”; a condition that tells them apart may be missing. Equal values may be shown once. Entries after “also recorded” stand apart in the source; their conditions may differ.", "data": [{"smiles": "C[C@@H]1CCCCCCCCC[C@H](O)C(=O)C[C@@H](SC[C@@H](O)C(=O)O)C(=O)O1", "note": "[BPL 76, (S)-2-hydroxy-3-(((3R,6S,16R)-6-hydroxy-16-methyl-2,5-dioxooxacyclohexadecan-3-yl)thio)propanoic acid]", "values": [{"measurement": "effect on GFP synthesis and corresponding fluorescence", "setting": "GFP synthesis", "value": "no effect at either concentration; also recorded: lack of inhibition"}, {"measurement": "activity against Gram-positive bacteria", "setting": "Gram-positive bacteria", "value": "strongest activity"}, {"measurement": "IC50", "setting": "HepG2", "value": 64.8, "unit": "µg/mL"}, {"measurement": "MIC", "setting": "S. aureus CAIRD148", "value": 1, "unit": "µg/mL"}, {"measurement": "MIC", "setting": "[1]; Mycobacterium tuberculosis, read-out: MIC, LORA", "value": 24, "unit": "µg/mL"}, {"measurement": "MIC, LORA", "setting": "[1]", "value": "~24", "unit": "µg/mL"}, {"measurement": "MIC", "setting": "Enterococcus faecalis", "value": 13, "unit": "µg/mL"}, {"measurement": "mammalian toxicity concentration", "setting": "[2]", "value": "~60", "unit": "µg/mL"}, {"measurement": "MIC, MABA", "setting": "[3]", "value": "~25", "unit": "µg/mL"}, {"measurement": "fold less active against Mtb than against MRSA", "setting": "[3]", "value": 25, "unit": "fold"}, {"measurement": "times less potent than rifampicin against Mtb", "setting": "[3]", "value": 100, "unit": "×"}, {"measurement": "activity against K. pneumonia (in words)", "setting": "K. pneumoniae (10031)", "value": "weakly active"}, {"measurement": "MIC", "setting": "K. pneumoniae (10031); Klebsiella pneumoniae, read-out: MIC, K. pneumoniae (10031)", "value": "1000 µM and 405 µg/mL"}, {"measurement": "activity against E. coli (in words)", "setting": "E. coli (25922)", "value": "weakly active"}, {"measurement": "MIC", "setting": "E. coli (25922); Escherichia coli, read-out: MIC, E. coli (25922)", "value": "1000 µM and 405 µg/mL"}, {"measurement": "efficacious concentration to induce bactericidal activity", "setting": "[4]", "value": "~1", "unit": "µg/mL"}, {"measurement": "MIC", "setting": "[5]", "value": 1, "unit": "µg/mL"}, {"measurement": "IC50", "setting": "Vero cell", "value": 61.5, "unit": "µg/mL"}, {"measurement": "MIC", "setting": "Bacillus subtilis", "value": 13, "unit": "µg/mL"}, {"measurement": "MIC", "setting": "P. aeruginosa", "value": "> 1000", "unit": "µM"}, {"measurement": "MIC", "setting": "[6]", "value": 25, "unit": "µg/mL"}, {"measurement": "MIC", "setting": "Candida glabrata", "value": 6, "unit": "µg/mL"}, {"measurement": "MIC", "setting": "C. albicans", "value": 26, "unit": "µg/mL"}, {"measurement": "cell death induced in PBMCs", "setting": "[7]", "value": "up to 60%"}, {"measurement": "MIC", "setting": "Streptococcus pyogenes", "value": 3, "unit": "µg/mL"}, {"measurement": "MIC", "setting": "S. aureus CAIRD116", "value": 1, "unit": "µg/mL"}, {"measurement": "IC50", "setting": "J774", "value": 16.8, "unit": "µg/mL"}, {"measurement": "MIC", "setting": "S. aureus CAIRD142", "value": 2, "unit": "µg/mL"}, {"measurement": "MIC", "setting": "B. anthracis", "value": 3, "unit": "µg/mL"}]}]}
